# Results published in patent US10022389B2, “Prophylactic or therapeutic drug for constipation” (TAISHO PHARMACEUTICAL CO., LTD., priority 2013, dated 2018).
# Experiments:
# Type in all cases: in vivo, SD/IGS rats
# [1] = test system: rats with constipation induced by low-fiber diet; test: Test 1: ameliorating effect on constipation models fed on low-fiber diet; conditions: low-fiber diet constipation model rats, oral in 0.5% MC, dosed twice (0 and 8 h)
# Method: Test 1: Ameliorating Effect on Constipation Models Fed on Low-Fiber Diet
# SD/IGS rats (6-wk old; CHARLES RIVER LABORATORIES JAPAN, INC.) in groups, each consisting of two heads per cage, were fed on a diet with a decreased dietary fiber content of 5% for a week in order to induce constipation. The normal group was fed on a standard diet with 15% dietary fiber (MF diet; ORIENTAL YEAST CO., LTD.) On the day before the test, each rat was measured for body weight and thereafter transferred into an individual cage. Grouping was performed on the basis of the body weights measured on the day before the test. The experimental groups of rats with induced constipation were orally administered compound (I) in a volume of 5 mL/kg body weight as dissolved in 0.5% (w/v) methylcellulose (MC), whereas the control vehicle group was orally administered 0.5% MC only. […] Immediately after the first administration, a stool recovery tray was placed under each cage and starting 2 hours after the administration, stools were recovered every two hours until 24 hours after the administration; the appearance of the recovered stools was observed and their weight was measured. To determine their moisture content, the stools were measured for their wet weight, dried for at least 8 hours at 100° C., measured for dry weight, and its proportion (%) to the wet weight was calculated. […]
# [2] = Test 3: percentage of compound (I) remaining unaltered in rat's digestive tract; conditions: 1 mg/kg oral; for Remaining unaltered, cecum/large intestine (including the contents), relative to dose / Remaining unaltered, small intestine's contents, relative to dose / Remaining unaltered, small intestine, relative to dose / Remaining unaltered, total, relative to dose: average of 4 cases ± S.D.
# Method: Test 3: Percentage of Compound (I) Remaining Unaltered in Rat's Digestive Tract
# Seven-week old SD/IGS rats (CHARLES RIVER LABORATORIES JAPAN, INC.; male; fasted) were orally administered compound (I) (1 mg/kg) formulated with an aqueous solution of 0.5% CMC-Na (carboxymethylcellulose sodium salt). One, four and seven hours after the drug administration, the rats were euthanized under anesthetization with ether and their small intestine, cecum, and large intestine were removed. The contents of the small intestine were recovered by infusing the small intestine with 20 mL of physiological saline. After washing the tissue's surface with physiological saline, the tissues and the recovered contents were measured for their weight and homogenized under cooling with ice in the presence of added 4 volumes of purified water. The homogenate was deproteinated in the presence of an added acetonitrile/methanol solution containing an internal standard and, thereafter, the supernatant was analyzed by LC-MS/MS (Applied Biosystems: API3000). Drug-derived ions were detected by selected reaction monitoring based on electrospray ionization in a positive ion mode. From peak areas in the resulting extracted ion chromatogram, drug concentrations in the homogenate were calculated by the internal standard method.
# The internal standard here used was compound 11 disclosed in WO2007/136116.
# [3] = test system: rats with loperamide-induced constipation; test: Test 2: ameliorating effect on loperamide-induced constipation; conditions: loperamide (5 mg/kg p.o.) constipation model rats, oral in 0.5% MC
# Method: Test 2: Ameriolating Effect on Loperamide-Induced Constipation
# The effects on constipation as induced by loperamide which suppresses the propulsion of the digestive tract's contents and the secretion of intestinal juice were investigated.
# SD/IGS rats (6-wk old; CHARLES RIVER LABORATORIES JAPAN, INC.) in groups, each consisting of one head per cage, were kept in a day-and-night reversal room for 11 days. The rats were fasted for about 16 hours and orally administered 0.5% MC suspended loperamide at a dose of 5 mg/5 mL/kg body weight to prepare constipation models. The normal group was orally administered on 0.5% MC only. […] Immediately after the administration of compound (I), 5 g of a standard diet (MF diet; ORIENTAL YEAST CO., LTD.) was applied and thereafter, a stool recovery tray was placed under each cage and starting 2 hours after the administration, stools were recovered every two hours until after 12 hours; the appearance of the recovered stools was observed and their weight was measured. To determine their moisture content, the stools were measured for their wet weight, dried for at least 8 hours at 100° C., measured for dry weight, and its proportion (%) to the wet weight was calculated. […]
smiles,measurement,setting,value
"COc1cc(C(C)C)c(Cc2ccc(/C=C/C(C)(C)C(=O)NC(C)(C)C(=O)NCCN(C)C)cc2)cc1[C@@H]1O[C@H](CO)[C@@H](O)[C@H](O)[C@H]1O [Compound (I), (1S)-1,5-anhydro-1-[5-(4-{(1E)-4-[(1-{[2-(dimethylamino)ethyl]amino}-2-methyl-1-oxopropan-2-yl)amino]-3,3-dimethyl-4-oxobut-1-en-1-yl}benzyl)-2-methoxy-4-(propan-2-yl)phenyl]-D-glucitol]",wet weight of stools,[1]; stools recovered until 24 hours (FIG. 1),increased
same,moisture content of stools,[1]; stools recovered until 24 hours (FIG. 2),increased
same,dose remaining unaltered in the small intestine and its contents,[2]; 1 hour after drug administration,about 75%
same,"Remaining unaltered, cecum/large intestine (including the contents), relative to dose",[2]; 1 hr after dosing,0.2 ± 0.3 % of dose
same,"Remaining unaltered, small intestine's contents, relative to dose",[2]; 1 hr after dosing,70.3 ± 6.7 % of dose
same,"Remaining unaltered, small intestine, relative to dose",[2]; 1 hr after dosing,4.9 ± 0.6 % of dose
same,"Remaining unaltered, total, relative to dose",[2]; 1 hr after dosing,75.4 ± 6.3 % of dose
same,dose remaining unaltered in the small intestine and its contents,[2]; 4 hours after drug administration,about 75%
same,"Remaining unaltered, cecum/large intestine (including the contents), relative to dose",[2]; 4 hr after dosing,33.1 ± 44.5 % of dose
same,"Remaining unaltered, small intestine's contents, relative to dose",[2]; 4 hr after dosing,69.7 ± 44.9 % of dose
same,"Remaining unaltered, small intestine, relative to dose",[2]; 4 hr after dosing,6.4 ± 5.3 % of dose
same,"Remaining unaltered, total, relative to dose",[2]; 4 hr after dosing,109.2 ± 10.7 % of dose
same,"Remaining unaltered, cecum/large intestine (including the contents), relative to dose",[2]; 7 hr after dosing,84.2 ± 8.8 % of dose
same,"Remaining unaltered, small intestine's contents, relative to dose",[2]; 7 hr after dosing,1.6 ± 1.2 % of dose
same,"Remaining unaltered, small intestine, relative to dose",[2]; 7 hr after dosing,0.7 ± 0.3 % of dose
same,"Remaining unaltered, total, relative to dose",[2]; 7 hr after dosing,86.5 ± 9.2 % of dose
same,wet weight of stools,[3]; stools recovered until 12 hours (FIG. 3),increased
same,moisture content of stools,[3]; stools recovered until 12 hours (FIG. 4),increased
